“And” between values parts separate entries of the source, which are not always exact repeats. Equal entries are not always repeated. “Also recorded” adds a separate entry of the source. Where two headings read alike, the source gives them in different places.
Experiments:
[1] = Intrinsic Dissolution Rate (IDR), Sirius inForm; assay type: physicochemical; conditions: for IDR Sector 1 average (pH 2.0) / IDR Sector 1 pH 2.0: pH 2.0, 37° C.; for IDR Sector 1 pH 2.0: individual runs; for XRPD Analysis Post Dissolution: solid form of disc after IDR analysis; for sector 1 IDR compared to free base form Compound 1 Form 1 / other forms: pH 2.0, comparison in words
Protocol: About 40 mg of the sample was compressed in a 6 mm disc recess, under 100 kg for 2 minutes, with greaseproof paper on the compression base, to form nondisintegrating discs. The discs were then plugged with a bung so that only one surface was exposed to the media during analysis and transferred to the Sirius inForm dissolution apparatus. Analysis was performed at 37° C. in 40 mL media (36 mL ISA water, 4 mL 0.1 M Acetate Phosphate Buffer). Dissolution data were collected over 4 pH sectors (pH 2.0, 5.5, 6.5, and 7.4) for a total of 2 hours—30 minutes per sector, with UV spectra collected every 30 seconds. A stir speed of 225 rpm was used with a 10 mm path length probe. The IDR was calculated based on the surface area of the 3/6/8 mm disc recess used (28.3 mm2 surface area). XRPD analysis was performed on all samples, both after compression of the material into the disc recess, and post dissolution analysis to observe any change in form. XRPD diffractograms were collected on the Bruker C2.

[2] = Gravimetric vapour sorption (GVS) analysis; assay type: physicochemical; conditions: for XRPD post GVS analysis: change of solid form after GVS; for GVS hygroscopicity: classification in words
[3] = Storage for one week at 40° C./75% RH and 25° C./97% RH, XRPD; assay type: physicochemical
[4] = Competitive slurry / thermodynamic stability of solid forms; assay type: physicochemical; conditions: competitive slurries at 5 and 50° C. in selected solvents, XRPD
Protocol: To these, 40 vol (1 mL) selected solvents was added and the material slurried at 5° C. or 50° C. for 72 hours on a HEL polyblock (500 rpm stirring). Solids were subsequently isolated by filtration and dried under suction prior to analysis by XRPD. In all but one experiment, Form 1 was the sole detectable phase by XRPD obtained after 72 hours.
These were mixed, and then aliquots (20 mg) of this mixture were dispensed into HPLC vials and 90 vol (1.8 mL) selected solvents added. Samples were slurried using a Polar Bear with 500 rpm magnetic stirring at 5 and 50° C. After 24 hours, aliquots were removed and analysed by XRPD. Experiment numbers: 01-10.
120 mg of both Compound 6 Pattern 1 and Compound 6 Pattern 4 were dispensed into a 20 mL vial. These were mixed, and then aliquots (20 mg) of this mixture was dispensed into HPLC vials and 90 vol selected solvents were added. Samples were slurried using a Polar Bear with 500 rpm magnetic stirring. Aliquots were removed after four days and analyzed by XRPD.

[5] = Solubility of Compound 1 in various solvents; assay type: physicochemical
Protocol: Solubility of >10 mg/mL was only observed in DMSO, NMP and MeOH:DCM 1:3 at 50° C.

plasma kallikrein = plasma kallikrein (Homo sapiens, UniProt P03952); conditions: in vitro kallikrein kinase assay, reported in the '129 publication; cited from earlier work
plasma kallikrein, sequence (P03952 20-638, species assumed): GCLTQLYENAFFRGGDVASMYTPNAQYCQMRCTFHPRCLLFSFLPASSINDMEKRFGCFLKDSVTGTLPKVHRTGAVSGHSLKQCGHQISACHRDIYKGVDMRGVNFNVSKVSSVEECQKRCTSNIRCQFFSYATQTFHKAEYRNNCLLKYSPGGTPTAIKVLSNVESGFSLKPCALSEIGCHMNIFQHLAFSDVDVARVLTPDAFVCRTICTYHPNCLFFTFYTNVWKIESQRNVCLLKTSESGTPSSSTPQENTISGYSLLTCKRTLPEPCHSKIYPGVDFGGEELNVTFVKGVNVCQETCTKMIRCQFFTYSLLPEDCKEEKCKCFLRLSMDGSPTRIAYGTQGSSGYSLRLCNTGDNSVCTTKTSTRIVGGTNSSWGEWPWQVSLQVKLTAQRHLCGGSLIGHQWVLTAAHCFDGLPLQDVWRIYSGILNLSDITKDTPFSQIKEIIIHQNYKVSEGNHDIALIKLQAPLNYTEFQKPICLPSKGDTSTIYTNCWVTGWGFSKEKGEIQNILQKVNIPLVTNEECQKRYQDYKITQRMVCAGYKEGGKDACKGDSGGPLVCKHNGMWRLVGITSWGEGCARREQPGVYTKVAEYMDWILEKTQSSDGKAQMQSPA

[6] = one week (7 days), scaled-up / characterised material

For `O=C(NCc1ncn2ccc(Cl)c(F)c12)c1cn(Cc2cn3cc(C4CC4)ccc3n2)nn1` [Compound 1 Form 1, N-((7-chloro-8-fluoroimidazo[1,5-a]pyridin-1-yl)methyl)-1-((6-cyclopropylimidazo[1,2-a]pyridin-2-yl)methyl)-1H-1,2,3-triazole-4-carboxamide], the “IDR Sector 1 average (pH 2.0)” value [1] was 104.8 μg/min/cm^2, the “IDR Sector 1 pH 2.0” value [1] was 104.3 μg/min/cm^2 and 105.2 μg/min/cm^2 and the “XRPD Analysis Post Dissolution” value [1] was “No change”. The “GVS increase in mass” value ([2]; RH range not given) was 0.5%, the “XRPD post GVS analysis” value [2] was “Material unchanged by XRPD post GVS” and the GVS hygroscopicity [2] was “slightly hygroscopic”. For the same molecule, the “Storage 25° C./97% RH, XRPD” value [3, 6] was “Compound 1 Form 1”, the “Storage 40° C./75% RH, XRPD” value [3, 6] was “Compound 1 Form 1” and the “thermodynamic stability relative to other solid forms” value [4] was “more thermodynamically stable than Compound 1 Form 3”. For the same molecule, the “thermodynamic stability relative to other solid forms” value ([4]; listed as Form 1) was “more thermodynamically stable than Form 2; also recorded: more thermodynamically stable polymorph; also recorded: polymorph most stable to typical storage and process conditions”.

For `O=C(NCc1ncn2ccc(Cl)c(F)c12)c1cn(Cc2cn3cc(C4CC4)ccc3n2)nn1` [Compound 1, N-((7-chloro-8-fluoroimidazo[1,5-a]pyridin-1-yl)methyl)-1-((6-cyclopropylimidazo[1,2-a]pyridin-2-yl)methyl)-1H-1,2,3-triazole-4-carboxamide], the solubility ([5]; 25 °C, organic solvent or mixture, all solvents assessed, Compound 1 as synthesized in Example 1, read-out: solubility at 25° C.) was less than 10000 µg/mL, the solubility ([5]; Acetone, 50 °C, organic solvent or mixture, read-out: Solubility at 50° C.) was less than 10000 µg/mL and the solubility ([5]; Acetone:H2O 9:1, 50 °C, organic solvent or mixture, read-out: Solubility at 50° C.) was less than 10000 µg/mL. For the same molecule, the solubility ([5]; Acetonitrile, 50 °C, organic solvent or mixture, read-out: Solubility at 50° C.) was less than 10000 µg/mL, the solubility ([5]; Acetonitrile:H2O 1:1, 50 °C, aqueous with cosolvent or surfactant or cyclodextrin, read-out: Solubility at 50° C.) was less than 10000 µg/mL and the solubility ([5]; DCM, 50 °C, organic solvent or mixture, read-out: Solubility at 50° C.) was less than 10000 µg/mL. For the same molecule, the solubility ([5]; DMAC, 50 °C, organic solvent or mixture, read-out: Solubility at 50° C.) was less than 10000 µg/mL, the solubility ([5]; DMF, 50 °C, organic solvent or mixture, read-out: Solubility at 50° C.) was less than 10000 µg/mL and the “Solubility at 50° C.” value ([5]; DMSO) was greater than 10000 µg/mL. The solubility ([5]; DMSO, 50 °C, organic solvent or mixture, read-out: Solubility at 50° C.) was greater than 10000 µg/mL, the solubility ([5]; Ethanol, 50 °C, organic solvent or mixture, read-out: Solubility at 50° C.) was less than 10000 µg/mL and the solubility ([5]; Ethyl acetate, 50 °C, organic solvent or mixture, read-out: Solubility at 50° C.) was less than 10000 µg/mL. The solubility ([5]; IPA, 50 °C, organic solvent or mixture, read-out: Solubility at 50° C.) was less than 10000 µg/mL, the solubility ([5]; IPAC, 50 °C, organic solvent or mixture, read-out: Solubility at 50° C.) was less than 10000 µg/mL and the solubility ([5]; MEK, 50 °C, organic solvent or mixture, read-out: Solubility at 50° C.) was less than 10000 µg/mL. The solubility ([5]; MIBK, 50 °C, organic solvent or mixture, read-out: Solubility at 50° C.) was less than 10000 µg/mL, the solubility ([5]; MeOH:Chlorobenzene (1:1), 50 °C, organic solvent or mixture, read-out: Solubility at 50° C.) was less than 10000 µg/mL and the “Solubility at 50° C.” value ([5]; MeOH:DCM 1:3) was greater than 10000 µg/mL. The solubility ([5]; MeOH:DCM 1:3, 50 °C, organic solvent or mixture, read-out: Solubility at 50° C.) was greater than 10000 µg/mL, the solubility ([5]; MeOH:H2O 9:1, 50 °C, organic solvent or mixture, read-out: Solubility at 50° C.) was less than 10000 µg/mL and the solubility ([5]; MeOH:Toluene (1:1), 50 °C, organic solvent or mixture, read-out: Solubility at 50° C.) was less than 10000 µg/mL. For the same molecule, the solubility ([5]; MeOH:anisole (1:1), 50 °C, organic solvent or mixture, read-out: Solubility at 50° C.) was less than 10000 µg/mL, the solubility ([5]; Methanol, 50 °C, organic solvent or mixture, read-out: Solubility at 50° C.) was less than 10000 µg/mL and the “Solubility at 50° C.” value ([5]; NMP) was greater than 10000 µg/mL. It also gave a solubility ([5]; NMP, 50 °C, organic solvent or mixture, read-out: Solubility at 50° C.) greater than 10000 µg/mL, a solubility ([5]; TBME, 50 °C, organic solvent or mixture, read-out: Solubility at 50° C.) of less than 10000 µg/mL and a solubility ([5]; THF, 50 °C, organic solvent or mixture, read-out: Solubility at 50° C.) of less than 10000 µg/mL. It also gave a solubility ([5]; THF:H2O 9:1, 50 °C, organic solvent or mixture, read-out: Solubility at 50° C.) of less than 10000 µg/mL, a solubility ([5]; Toluene, 50 °C, organic solvent or mixture, read-out: Solubility at 50° C.) of less than 10000 µg/mL and a solubility ([5]; n-heptane, 50 °C, organic solvent or mixture, read-out: Solubility at 50° C.) of less than 10000 µg/mL. The solubility ([5]; t-BuOH, 50 °C, organic solvent or mixture, read-out: Solubility at 50° C.) was less than 10000 µg/mL, the solubility ([5]; t-BuOH:H2O 1:1, 50 °C, aqueous with cosolvent or surfactant or cyclodextrin, read-out: Solubility at 50° C.) was less than 10000 µg/mL and the EC50 (plasma kallikrein) was less than 1 nM.

In the case of `O=C(NCc1ncn2ccc(Cl)c(F)c12)c1cn(Cc2cn3cc(C4CC4)ccc3n2)nn1.O=C(O)C(=O)O` [Compound 6 Pattern 1], the “IDR Sector 1 average (pH 2.0)” value [1] is reported as 866.8 μg/min/cm^2, the “IDR Sector 1 average (pH 2.0)” value ([1]; listed as Oxalate Pattern 1) is reported as 866.8 μg/min/cm^2 and the “IDR Sector 1 pH 2.0” value ([1]; listed as Oxalate Pattern 1) is reported as 895.9 μg/min/cm^2 and 837.7 μg/min/cm^2. The “sector 1 IDR compared to free base form Compound 1 Form 1 / other forms” value [1] was “increased sector 1 IDR”, the “XRPD Analysis Post Dissolution” value ([1]; listed as Oxalate Pattern 1) was “Partial conversion to Compound 1” and the GVS mass increase ([2]; between 0 and 90% RH) was 0.6%. For the same molecule, the “XRPD post GVS analysis” value [2] was “no observed change”, the GVS hygroscopicity [2] was “slightly hygroscopic” and the “Storage 25° C./97% RH, XRPD” value [3, 6] was “unchanged by XRPD”. The “Storage 40° C./75% RH, XRPD” value [3, 6] was “unchanged by XRPD”, the “Storage 40° C./75% RH, XRPD” value ([3]; one week, material isolated from salt/cocrystal screening experiments) was “slightly changed” and the “thermodynamic stability relative to other solid forms” value ([4]; listed as Oxalate Pattern 1) was “Less thermodynamically stable”.

With `O=C(NCc1ncn2ccc(Cl)c(F)c12)c1cn(Cc2cn3cc(C4CC4)ccc3n2)nn1.O=C(O)C(=O)O` [Compound 6 Pattern 4] the “IDR Sector 1 average (pH 2.0)” value ([1]; listed as Oxalate Pattern 4) was 674.7 μg/min/cm^2, the “IDR Sector 1 pH 2.0” value ([1]; listed as Oxalate Pattern 4) was 692.8 μg/min/cm^2 and 656.6 μg/min/cm^2 and the “sector 1 IDR compared to free base form Compound 1 Form 1 / other forms” value [1] was “increased sector 1 IDR”. The “XRPD Analysis Post Dissolution” value ([1]; listed as Oxalate Pattern 4) was “Partial conversion to Compound 1”, the GVS mass loss ([2]; between 0 and 90% RH) was 0.66% and the “XRPD post GVS analysis” value [2] was “unchanged”. The GVS hygroscopicity [2] was “slightly hygroscopic”, the “Storage 25° C./97% RH, XRPD” value [3, 6] was “unchanged by XRPD” and the “Storage 40° C./75% RH, XRPD” value [3, 6] was “unchanged by XRPD”. The “thermodynamic stability relative to other solid forms” value [4] was “more thermodynamically stable of the two solvent-free oxalate salts; also recorded: more thermodynamically stable than Compound 6 Pattern 1” and the “thermodynamic stability relative to other solid forms” value ([4]; listed as Oxalate Pattern 4) was “More thermodynamically stable”.
